For series [1] the following is noted: database annotation in words, no reference given; cited from earlier work.
For series [2] the following is noted: database annotation in words, no reference given; cited from earlier work. This is another data set of the same source.
The conditions of series [3]: cited from earlier work.
The target of series [4] is T1, Superoxide dismutase [Mn] (Homo sapiens, UniProt P04179).
T1 construct: purchased Sino Biological (Shanghai)
T1 sequence (P04179 25-222): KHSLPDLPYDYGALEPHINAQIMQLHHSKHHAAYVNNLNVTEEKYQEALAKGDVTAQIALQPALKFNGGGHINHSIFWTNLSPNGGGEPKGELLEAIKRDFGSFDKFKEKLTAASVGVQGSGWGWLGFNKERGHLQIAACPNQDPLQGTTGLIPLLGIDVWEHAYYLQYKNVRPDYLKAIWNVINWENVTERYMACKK
Put plainly: SPR assay SOD2. It is filed as binding. (Surface plasmon resonance follows binding to a sensor surface in real time, without labels.)

Series [5] has as its target T2, Mammalian target of rapamycin (Homo sapiens, UniProt P42345).
T2 construct: purchased Proteintech (Shanghai)
Put plainly: Enzyme activity test mTOR (Lance ultra). It counts as biochemical. As for the experimental part: (§1) As there were some kinase proteins in our protein database with different characteristics to other proteins, we used an enzyme activity test to validate the real interactions between the protein and molecule.
(§2) Selected pairs of protein and molecule participated in enzyme activity test, while electrophoretic mobility shirt assay (EMSA) and Lance ultra were conducted in an experiment with […] (100, 50, 25, 12.5, 6.25, 3.12, 1.56, 0.78, and 0.39 μmol/l). Finally, the IC50 (nM) value was used to assess the ability of a molecule to act or inhibit the protein.

The target in a further series is T3, Acetyl-CoA carboxylase 1 (Homo sapiens, UniProt Q13085).
T3 construct: purchased Proteintech (Shanghai)
Put plainly: SPR assay ACC1. As to conditions: for Offset / Rmax / χ^2: ACC1. It counts as binding. As to the method: In the SPR test, the target proteins were first combined with the CM5 chip. After correction through standard solutions, a series of different concentrations of molecules (0, 2, 4, 8, 16, 32, 64, and 128 μmol/l) were tested for their binding to the protein. Finally, the affinity between the protein and molecule was determined by an array of parameters, such as the Kd values, Rmax, offset, and χ^2.

Series [6] deals with T4, Protein kinase C, beta type (Homo sapiens, UniProt P05771).
T4 construct: purchased Proteintech (Shanghai)
T4 sequence (P05771 whole entry): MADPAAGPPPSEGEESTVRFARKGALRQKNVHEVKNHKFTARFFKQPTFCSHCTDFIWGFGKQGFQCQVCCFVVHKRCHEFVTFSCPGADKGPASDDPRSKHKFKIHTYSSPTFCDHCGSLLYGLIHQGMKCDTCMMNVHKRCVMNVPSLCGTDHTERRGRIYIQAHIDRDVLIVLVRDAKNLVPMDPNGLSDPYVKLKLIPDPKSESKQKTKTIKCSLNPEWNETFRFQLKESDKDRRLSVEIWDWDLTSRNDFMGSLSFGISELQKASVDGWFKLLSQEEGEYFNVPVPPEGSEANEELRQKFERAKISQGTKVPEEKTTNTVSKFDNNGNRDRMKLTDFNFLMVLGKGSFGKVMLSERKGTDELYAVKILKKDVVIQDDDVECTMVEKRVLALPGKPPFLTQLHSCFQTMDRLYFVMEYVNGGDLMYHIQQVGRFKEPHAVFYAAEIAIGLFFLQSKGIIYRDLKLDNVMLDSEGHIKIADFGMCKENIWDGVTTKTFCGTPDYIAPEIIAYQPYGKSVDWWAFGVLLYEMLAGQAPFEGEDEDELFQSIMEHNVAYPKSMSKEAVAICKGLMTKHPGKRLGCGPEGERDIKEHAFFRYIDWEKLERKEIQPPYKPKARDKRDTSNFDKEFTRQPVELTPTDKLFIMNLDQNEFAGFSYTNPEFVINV
Put plainly: Enzyme activity test PKC-B (EMSA). It counts as biochemical. As for the experimental part:
as §1, §2
In general terms: A gel shift assay detects complexes by their altered migration in electrophoresis.

Series [7] has as its target T5, Rho-associated protein kinase 1 (Homo sapiens, UniProt Q13464).
T5 construct: purchased Proteintech (Shanghai)
Put plainly: Enzyme activity test ROCK1 (EMSA). It counts as biochemical. As to the method: as §1, §2

Read-outs that look alike come from different tables or passages of the source.

T5 sequence (Q13464 whole entry): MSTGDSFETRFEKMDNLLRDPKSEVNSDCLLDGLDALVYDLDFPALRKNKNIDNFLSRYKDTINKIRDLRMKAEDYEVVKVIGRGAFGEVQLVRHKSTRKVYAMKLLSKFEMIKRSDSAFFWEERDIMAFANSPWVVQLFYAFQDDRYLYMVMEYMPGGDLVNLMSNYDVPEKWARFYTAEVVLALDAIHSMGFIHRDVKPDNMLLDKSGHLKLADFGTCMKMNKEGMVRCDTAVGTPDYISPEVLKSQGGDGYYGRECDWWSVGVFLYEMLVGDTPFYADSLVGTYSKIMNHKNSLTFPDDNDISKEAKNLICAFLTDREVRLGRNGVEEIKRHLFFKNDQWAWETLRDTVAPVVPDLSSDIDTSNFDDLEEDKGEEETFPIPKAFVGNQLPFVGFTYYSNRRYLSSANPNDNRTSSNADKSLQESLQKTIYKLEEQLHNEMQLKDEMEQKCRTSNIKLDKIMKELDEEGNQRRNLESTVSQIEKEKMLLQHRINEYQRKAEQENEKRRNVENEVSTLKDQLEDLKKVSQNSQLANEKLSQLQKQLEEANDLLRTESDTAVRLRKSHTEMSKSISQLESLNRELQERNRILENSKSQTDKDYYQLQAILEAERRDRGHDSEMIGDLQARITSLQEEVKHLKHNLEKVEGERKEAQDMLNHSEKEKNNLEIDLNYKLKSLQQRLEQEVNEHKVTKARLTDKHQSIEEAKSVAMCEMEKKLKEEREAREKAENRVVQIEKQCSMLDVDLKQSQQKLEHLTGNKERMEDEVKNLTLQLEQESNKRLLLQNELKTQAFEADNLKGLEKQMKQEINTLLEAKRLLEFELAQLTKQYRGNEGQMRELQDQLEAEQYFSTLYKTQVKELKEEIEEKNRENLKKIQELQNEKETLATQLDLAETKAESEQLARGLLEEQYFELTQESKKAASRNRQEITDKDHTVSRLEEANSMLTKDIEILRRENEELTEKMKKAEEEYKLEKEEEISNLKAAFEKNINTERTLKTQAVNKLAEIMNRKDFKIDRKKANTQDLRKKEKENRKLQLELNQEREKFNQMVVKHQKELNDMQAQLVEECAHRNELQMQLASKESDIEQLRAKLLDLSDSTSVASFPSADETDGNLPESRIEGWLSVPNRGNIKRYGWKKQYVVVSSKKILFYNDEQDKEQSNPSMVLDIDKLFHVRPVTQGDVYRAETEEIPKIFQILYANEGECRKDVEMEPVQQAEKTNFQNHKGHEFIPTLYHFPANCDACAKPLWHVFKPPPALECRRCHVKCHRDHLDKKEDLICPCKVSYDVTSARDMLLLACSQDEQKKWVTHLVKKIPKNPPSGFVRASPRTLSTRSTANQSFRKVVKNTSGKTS

With stachyose, the “作用药理: side effect” value in series [1] is recorded as “胀气副作用，炮制可减少水苏糖的量”.
Regarding `OC[C@H]1O[C@@H](O[C@@H]2OC=C[C@H]3[C@H](O)[C@@H]4O[C@]4(CO)[C@@H]23)[C@H](O)[C@@H](O)[C@@H]1O` [catalpol / catalpinoside], in series [2], the “stability remark (acid, base, high temperature)” value is listed as “酸碱高温下可分解，分解后变黑”. Also, the “作用药理 (pharmacological action)” value in series [1] was “有降糖作用”.
`C[C@@H]1O[C@@H](OC[C@H]2O[C@@H](Oc3c(-c4ccc(O)c(O)c4)oc4cc(O)cc(O)c4c3=O)[C@H](O)[C@@H](O)[C@@H]2O)[C@H](O)[C@H](O)[C@H]1O` [Rutin]: the “absorbed in blood after the oral administration of GDC” value (“absorbed in blood” for short) in series [3] is “could be absorbed in blood”.
What is called Kd is a measure of binding affinity in units of concentration. Consider `COc1c(O)cc(O)c2c(=O)cc(-c3ccccc3)oc12` [Wogonin], for which, in series [4] (SOD2), the Offset was −3.611 RU, the Rmax is recorded as 14.3 RU and the “χ^2” value turned out to be 2.11 RU^2. The compound further registered a Kd in series [4] (SOD2 on CM5 chip) of 5.08 µM.
Regarding `COc1cc(C(=O)OCCCCNC(=N)N)cc(OC)c1O` [leonurine], in series [1], the “作用药理 (pharmacological action)” value was “抗血小板作用”.
Usually IC50 stands for the concentration that inhibits the measured activity by half. In series [5], `CC(C)(O)[C@@H]1CC[C@](C)([C@H]2[C@@H](O)C[C@@]3(C)[C@@H]4C[C@H](O[C@@H]5O[C@H](CO)[C@@H](O)[C@H](O)[C@H]5O)[C@H]5C(C)(C)[C@@H](O[C@@H]6OC[C@@H](O)[C@H](O)[C@H]6O)CC[C@@]56C[C@@]46CC[C@]23C)O1` [Astragaloside IV] yielded an IC50 of more than 10 µM. At Acetyl-CoA carboxylase 1, the Kd amounted to 92.5 µM. Further, on Acetyl-CoA carboxylase 1 (SPR), the Offset was 0.2424 RU, the Rmax turned out to be 7.856 RU and the “χ^2” value was 0.0243 RU^2. In series [3], the “absorbed in blood” value is recorded as “could be absorbed in blood”. The “作用药理 (pharmacological action)” value in series [1] was “诱导TNF-α分泌，降低直接作用+作用于肝糖调节酶+通过上调Sarco/内质网Ca2 + -ATP酶2的表达。抑制足细胞介导的细胞凋亡的内质网应激”.
Regarding astragalosideⅤ, the “作用药理 (pharmacological action)” value in series [1] is given as “阻碍羧甲基赖氨酸、戊糖苷形成，抑制糖尿病视网膜病变、神经病变进程”.
On to `COC(=O)C1=CO[C@@H](O[C@@H]2O[C@H](CO)[C@@H](O)[C@H](O)[C@H]2O)[C@@H]2[C@H](C)O[C@@H](O)C[C@H]12` [Morroniside], for which the IC50 in series [6] was more than 10 µM. In addition, at Acetyl-CoA carboxylase 1 (SPR), the Offset is given as −0.2651 RU, the Rmax is 2.204 RU and the “χ^2” value came to 0.0962 RU^2. Also, the Kd on Acetyl-CoA carboxylase 1 (SPR, ACC1 on CM5 chip, read-out: Kd) was determined as 13.6 µM. Further, the “absorbed in blood” value in series [3] was “could be absorbed in blood”. In series [7], this compound returned an IC50 of more than 10 µM.
